Reference: patent US9980982B2, “HE4 based therapy for malignant disease” (Women & Infants Hospital of Rhode Island, priority 2011, dated 2018)
Entries after “also recorded” stand apart in the source; their conditions may differ.

Assays:
PI-3K = assay: In vitro immunoprecipitation lipid kinase (PIP-3) assay; assay type: cell-based, Human; settings: HE4 overexpressing clones, Cisplatin treatment
Description: FIG. 18 is a series of photographs and a schematic illustrating that HE4 regulates EGFR/PI-3K signaling in ovarian cancer cells. […] (C) Mechanistic model of HE4 overexpression induced chemoresistance against Cisplatin via activation of EGFR and PI-3K and its signaling product PIP-3.
HE4 over-expression causes deactivation of pro-survival mitochondrial proteins in SKOV-3 cells. Ovarian cancer cells (SKOV-3) (1 million) were seeded in petri dishes and allowed to adhere overnight in DMEM media supplemented with 10% Fetal Bovine serum without antibiotic. In a separate tube, HE4 cDNA was complexed with lipofectamine (Invitrogen) for 1 min-2 hrs in Optimem media (Invitrogen). HE4 cDNA Lipofectamine complex dissolved in Optimem media were added to the cells. Lipofectamine and no drug were used as control. At different time points (4 hrs, 9 hrs and 24 hr), cells were collected and lysed using lysis buffer. […] Effect of HE4 activation on PIP2-PIP3 conversion was assessed by lipid kinase assay (Yano N. et al. Biochem. J. (2009) 423 (129-143).
A panel of stable HE4 overexpressing ovarian cancer SKOV-3 cell lines were developed by incorporation of pCMV6-HE4 vector. […] The cell viability was measured by MTS assay. Basal reactive oxygen species (ROS) production were measured by FACS analysis. In vitro Phosphoinositide-3-kinase (PI-3K) activity was measured by an immuno-precipitation PIP-3 assay. […]

[1] = system: HE4 overexpressing SKOV-3 clones HE4C1, -C3, -C7; assay: MTS cell viability assay, HE4 overexpressing SKOV-3 clones; assay type: cell-based, Human; settings: for response of HE4 overexpressing SKOV-3 clones to drug treatment (viability, words): 24 h, clones HE4C1, -C3, -C7, compared to parental SKOV-3
Description: An HE4 overexpressing vector for stable expression was engineered by inserting a coding sequence of human WAP four-disulfide core domain 2 (WFDC2) cDNA into a multiple cloning site of an eukaryotic expression vector, pCMV6-entry (Origene, Rockville, Md.). Transfection of the constructs in SKOV-3 cells was performed using Lipofectamine 2000 (Invitrogen, Carlsbad, Calif.) according to the manufacturer's instructions. Stably transfected cells were selected by resistance to G-418 (500 μg/ml) (Research Products International, Mount Prospect, Ill.), applied 48 h after transfection and continued during cell culture. G-418 resistant cells were resuspended (density 5 cells/ml) in complete medium/G-418 and seeded as 200 μl/well on a 96 well cell culture plate (Corning, New York, N.Y.). Cells growing from single colonies (cloned; stable transfection) were isolated.
(§1) Cell growth and viability of cell lines (complete medium, 24 h incubation) was determined by the CellTiter 96® AQueous One Solution Assay (Promega Corp, Madison, Wis.) following the manufacturer's recommendations with modifications (Lange T S et al., 2008 PLOS One, 3(5):e2303). Experiments are expressed as the mean of triplicate determinations (X±SD) of a representative experiment in OD (cell growth) or % of absorbance by drug-treated versus untreated cells [=100%] (cell viability). Cisplatin (CDDP), paclitaxel, doxorubicin and camptothecin (CPT) were purchased from (Sigma Aldrich, St. Louis, Mo.).
(§2) To analyze the potential biological relevance of elevated HE4 production for ovarian cancer cells the efficacy of commonly used anticancer drugs was examined in a viability assay (FIG. 5). SKOV-3 clones or parental cells were treated with cisplatin, paclitaxel, doxorubicin, or camptothecin for 24 h in various concentrations as indicated and the cytotoxicity evaluated.

HE4 [2] = assay: HE4 secretion levels in xenografted animals by EIA ELISA; assay type: in vivo, nude mice; settings: cisplatin 5 mg/kg bwt
Description: Because HE4 is a secretory protein, the secretion levels of HE4 were measured in animals by an EIA ELISA (Fujirebio Inc).

DNA = assay: ICP-MS analysis of Cisplatin binding to DNA in cells; assay type: cell-based, Human; settings: HE4+ clones versus parental SKOV-3 cells
Description: A panel of stable HE4 overexpressing ovarian cancer SKOV-3 cell lines were developed by incorporation of pCMV6-HE4 vector. Inducible HE4 overexpression was achieved by pTet-Off vector (VP 16 vector). The cell viability was measured by MTS assay. Basal reactive oxygen species (ROS) production were measured by FACS analysis. In vitro Phosphoinositide-3-kinase (PI-3K) activity was measured by an immuno-precipitation PIP-3 assay. An Inductively Coupled Plasma-Mass spectrometry (IPC-MS) analysis was carried out to estimate Cisplatin binding to DNA in cells. Mitochondria, rough ER and myelin figures were examined by Electron microscopy (EM). The screening of in-house library of compounds was carried out by MTS assay.

HE4 [3] = assay: HE4 levels in SKOV-3 cell lysates and media by sandwich ELISA; assay type: cell-based, Human; settings: cytotoxic agents, 24 hrs, serum free DMEM; versus untreated controls
Description: Various agents were examined by RT-PCR or by a sandwich ELISA. […] HE4 levels in cell lysates and media were evaluated by a sandwich ELISA.
Cells were grown for 24 h in 100 mm cell culture dishes (Corning, New York, N.Y.), supernatant collected and lysates of washed and scraped cells prepared as described previously (Lange T S et al., 2007Chem Biol Drug Design, 70:302-10). Total protein of lysates was quantitated (BioRad protein estimation kit, Hercules, Calif.), and HE4 levels were determined using the HE4 EIA assay (Fujirebio Diagnostics, Malvern, Pa.), a solid-phase, non-competitive immunoassay using two mouse monoclonal antibodies, directed against two epitopes in the C-WFDC domain. Calibration curves were used to measure HE4 concentrations in both cell lysates and culture media allowing for the calculation of production and secretion of HE4 in pmol/g total cellular protein.
FIG. 15 is a bar chart showing that treatment with growth factors and cytokines affect the HE4 levels in ovarian cancer cells. SKOV-3 cells (1 million each) were seeded in 100 mm dishes and incubated overnight. The cells were treated with an array of factors (IL-6, Insulin, TNFa, EGF) and incubated for another 6 hours. The media was collected and cells were lysed using the cell lysis buffer. The HE4 content in the media or in the cell-lysate was examined by a HE4 sandwich ELISA kit.

[4] = system: HE4 overexpressing clone-1 xenograft; assay: Cisplatin response and Kaplan-Meier analysis of animals xenografted with HE4 overexpressing clones; assay type: in vivo, nude mice; settings: cisplatin treated, within 14 days
Description: To ascertain the role of HE4 in the progression of ovarian cancer, the xenografts of stable HE4 overexpressing (pCMV6-HE4) clones, SKOV-3 (wild type) and the null vector clones (pCMV6) cells were raised in nude mice (strain 088, Nu/Nu). The tumor size was measured weekly.
The survival rate, tumor size, and the cisplatin or vehicle treatment response of animals xenografted with HE4 overexpressing clone-1, parental SKOV-3, and null vector clones was determined. […] Therefore, HE4 overexpression imparted chemoresistance against cisplatin treatment in animals.

SKOV-3 cells = assay: MTS cell viability assay, parental/wild-type SKOV-3 cells; assay type: cell-based, Human; settings: 24 h; paclitaxel 6.25, 12.5 or 25 nM; cisplatin 40 or 80 μM
Description: as §1, §2

## N.N.[Cl][Pt][Cl] [cisplatin]
PI-3K
  effect on PIP-3 synthesis: further enhancement of PIP-3 synthesis
[1]
  response of HE4 overexpressing SKOV-3 clones to drug treatment (viability, words): two clones did not respond; also recorded: significantly reduced response
[1]; listed as Cisplatin
  response of HE4 overexpressing SKOV-3 clones to drug treatment (viability, words): significantly reduced response
[1]; HE4C1, only at 80 μM
  sensitivity of clone HE4C1 to cisplatin: minor sensitivity
[1]; HE4C1 compared to parental and null vector cells
  fold chemoresistance against cisplatin: 2-4 fold
[1]; cell viability assay
  fold lower response / loss of efficacy / resistance of HE4 overexpressing SKOV-3 clones compared to parental SKOV-3: 20 fold
HE4 [2]
  HE4 levels in cisplatin treated groups versus vehicle treated animals: did not differ significantly; also recorded: not significantly different
DNA
  Cisplatin binding to DNA: reduced Cisplatin binding to DNA
HE4 [3]
  effect on HE4 levels in SKOV-3: suppressed HE4 levels
[4]
  animals that reached terminal tumor size (≥14 mm): ~60%
SKOV-3 cells
  effect on viability of wild-type SKOV-3 cells: reduced the viability of wild-type SKOV-3 cells drastically
